Assay results: patent publication US20180327367A1, “MACROCYCLIC BROAD SPECTRUM ANTIBIOTICS” (priority 2015, published 2018)
≈ marks a conversion by molar mass, not a printed value. Where two headings read alike, the source gives them in different places.

Assays:
[1] = target: T1, SpsB (Staphylococcus aureus signal peptidase) (Staphylococcus aureus, UniProt P0A070); experiment: cell-based; assay type: biochemical; details: SpsB IC50, whole-cell S. aureus (USA300 background, overexpressing SpsB) as SpsB source; fluorogenic peptide substrate, kinetic read 30 min
T1 construct: This assay uses a suspension of Staphylococcus aureus cells as a source of SpsB instead of recombinant SpsB protein; endogenous in cells; host or cells: S. aureus, USA300 background, overexpressing SpsB (whole-cell suspension from frozen pellets)
Method: A kinetic fluorogenic enzyme activity assay was used to assess inhibition of SpsB (Staphylococcus aureus signal peptidase) activity and IC50s were determined. This assay uses a suspension of Staphylococcus aureus cells as a source of SpsB instead of recombinant SpsB protein.
Cell preparation: Luria broth (LB) was inoculated with S. aureus (USA300 background, overexpressing SpsB) and shaken at 37° C. until an OD600 nm of 1.5-2.0 was reached (˜4 hr). The culture was then diluted to an OD600 nm of 1.0 with LB, aliquoted and centrifuged at 10,000×g for 2 mins. The supernatant was removed and the pellet was resuspended in phosphate buffer (1×PBS, 12.5 mg/L MgCl2, 25 mg/L CaCl2, 0.1% Tween-80) to an OD600 nm of 0.5, then centrifuged again at 10,000x g for 2 mins. The supernatant was removed and the pellets were frozen at −20° C.
Test compounds were prepared in DMSO at a concentration of 10 mg/mL. These compound stocks were diluted into DMSO to a concentration of 25 μg/mL and serial 3-fold dilutions were made in DMSO, for a total of 11 compound concentrations. 20 nL of each compound solution was pre-spotted into a white 384-well plate (50 μL/well polypropylene, Nunc) using acoustic fluid transfer (Echo).
Frozen S. aureus pellets were resuspended in assay buffer (1x PBS, 12.5 mg/L MgCl2, 25 mg/L CaCl2, 0.1% Tween-80) to an OD600 nm of 0.05, then mixed 1:1 (v/v) with 20 μM substrate ((Dabcyl)βAla-KPAKAAE(Edans)) in assay buffer, and this solution was added (20 μL/well) to the 384-well plate that had been pre-spotted with compound. Fluorescence intensity was then immediately read kinetically for 30 minutes with 2 minute read intervals to monitor cleavage of the internally quenched peptide substrate (excitation wavelength=340 nm, emission wavelength=490 nm, Molecular Devices Spectramax M5). Reaction rate (slope) was plotted against inhibitor concentration to derive the IC50.

[2] = test system: Methicillin Resistant Staphylococcus aureus strain USA 300, NRS384; experiment: Minimum inhibitory concentration, broth micro-dilution (CLSI), S. aureus; assay type: cell-based; details: Staphylococcus aureus, MRSA / NRS 384 / USA300, 22 h, 35° C., 22 hours
In short: (§1)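 CLSI broth microdilution in cation-adjusted Mueller Hinton Broth with 0.002% Tween-80; inoculum final OD600 0.0005, 22 hours at 35° C. Ten 2-fold dilutions starting at 4 μg/mL (protocol 2) or 0.5 μg/mL (protocol 3).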

[3] = test system: Escherichia coli ATCC 25922; experiment: Minimum inhibitory concentration, broth micro-dilution (CLSI), E. coli; assay type: cell-based; details: Escherichia coli, ATCC25922, 22 h, 35° C., 22 hours
[4] = test system: Escherichia coli MC4100 harboring the IMP4213 (E. coli IMP); experiment: microbe, parasite or virus in culture; assay type: cell-based; details: Escherichia coli, 22 h, read-out: MIC (μg/mL) E. coli IMP, E. coli MC4100 IMP4213, increased outer-membrane permeability; 35° C., 22 hours
In short: as §1

[5] = MRSA USA 300 NRS384, read-out: MIC (μg/mL) S. aureus
[6] = E. coli ATCC 25922, read-out: MIC (μg/mL) E. coli

T1 sequence (P0A070 whole entry): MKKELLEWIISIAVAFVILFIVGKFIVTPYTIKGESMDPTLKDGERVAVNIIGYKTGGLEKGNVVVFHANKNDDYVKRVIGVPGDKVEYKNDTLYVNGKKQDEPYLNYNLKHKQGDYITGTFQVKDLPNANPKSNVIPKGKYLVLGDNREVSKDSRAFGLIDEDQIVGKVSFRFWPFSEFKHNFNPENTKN

Structure (SMILES)	IC50 [1] [pM]	MIC [2, 5] [µg/mL]	MIC [3, 6] [µg/mL]	MIC ([2]; read-out: MIC (μg/mL) S. aureus, MRSA USA 300 NRS384) [µg/mL]	MIC ([3]; read-out: MIC (μg/mL) E. coli, E. coli ATCC 25922) [µg/mL]	MIC [4] [µg/mL]
CCCCCc1ncc(C(=O)N[C@@H](CCN)C(=O)N(C)[C@@H]2C(=O)N[C@@H](C)C(=O)N[C@H](C(=O)NCC#N)Cc3ccc(OCCN)c(c3)-c3cc2ccc3OCCN)c(C)n1 [Compound 200]	2800	1 (≈ 1.21 µM)	4 (≈ 4.83 µM)	–	–	–
Cc1cc(Oc2ccc(C(C)(C)C)cc2)ccc1C(=O)N[C@@H](CCN)C(=O)N(C)[C@@H]1C(=O)N[C@@H](C)C(=O)N[C@H](C(=O)NCC#N)Cc2ccc(OCCN)c(c2)-c2cc1ccc2OCCN [Compound 302]	790	–	–	0.031 (≈ 0.0343 µM)	0.25 (≈ 0.277 µM)	–
C[C@@H]1NC(=O)[C@@H](N(C)C(=O)[C@H](CCCCN)NC(=O)c2ccc(-c3ccc(Cl)cc3)cc2)c2ccc(OCCN)c(c2)-c2cc(ccc2O)C[C@@H](C(=O)NCC#N)NC1=O [Compound 318]	800	–	–	–	–	–
CCCCc1ccc(-c2ccc(C(=O)N[C@@H](CN)C(=O)N(C)[C@@H]3C(=O)N[C@@H](C)C(=O)N[C@H](C(=O)N[C@@H](C)C#N)Cc4ccc(OCCN)c(c4)-c4cc3ccc4OCCN)cc2)cc1 [Compound 340]	690	–	0.75 (≈ 0.858 µM)	–	–	< 0.063
CCCCCCCCc1ccc(C(=O)N[C@@H](CCCN)C(=O)N(C)[C@@H]2C(=O)N[C@@H](C)C(=O)N[C@H](C(=O)NCC#N)Cc3ccc(OC)c(c3)-c3cc2ccc3OC)cc1 [Compound 471]	10000	–	48 (≈ 59.3 µM)	–	–	< 0.063
CCCCCCCc1ccc(C(=O)N[C@@H](CCN)C(=O)N(C)[C@@H]2C(=O)N[C@@H](C)C(=O)N[C@H](C(=O)NCC#N)Cc3ccc(OCCNC(=O)CN)c(c3)-c3cc2ccc3OCCNC(=O)CN)c(C)c1 [Compound 499]	–	0.063 (≈ 0.0651 µM)	0.5 (≈ 0.516 µM)	–	–	0.023 (≈ 0.0238 µM)
CCCCCCCCc1ccc(C(=O)N[C@@H](CCC(=O)NC)C(=O)N(C)[C@@H]2C(=O)N[C@@H](C)C(=O)N[C@H](C(=O)NCC#N)Cc3ccc(OCCN)c(c3)-c3cc2ccc3OCCN)c(C)c1 [Compound 501]	–	0.38 (≈ 0.418 µM)	16 (≈ 17.6 µM)	–	–	> 0.13
Cc1nc(-c2ccc(CC(C)C)cc2)ccc1C(=O)N[C@@H](CCN)C(=O)N(C)[C@@H]1C(=O)N[C@@H](C)C(=O)N[C@H](C(=O)NCC#N)Cc2ccc(O)c(c2)-c2cc1ccc2OCCN [Compound 502]	–	0.063 (≈ 0.0745 µM)	0.25 (≈ 0.296 µM)	–	–	0.003 (≈ 0.00355 µM)
CCCCc1ccc(-c2ncc(C(=O)N[C@@H](CCN)C(=O)N(C)[C@@H]3C(=O)N[C@@H](C)C(=O)N[C@H](C(=O)NCC#N)Cc4ccc(O)c(c4)-c4cc3ccc4OCCN)c(C)n2)cc1 [Compound 503]	–	0.031 (≈ 0.0366 µM)	0.13 (≈ 0.153 µM)	–	–	0.002 (≈ 0.00236 µM)
CCCCCCc1ccc(-c2ncc(C(=O)N[C@@H](CCN)C(=O)N(C)[C@@H]3C(=O)N[C@@H](C)C(=O)N[C@H](C(=O)NCC#N)Cc4ccc(O)c(c4)-c4cc3ccc4OCCN)c(C)n2)cc1 [Compound 504]	–	0.094 (≈ 0.107 µM)	0.25 (≈ 0.286 µM)	–	–	0.016 (≈ 0.0183 µM)
CCc1ccc(-c2ncc(C(=O)N[C@@H](CCN)C(=O)N(C)[C@@H]3C(=O)N[C@@H](C)C(=O)N[C@H](C(=O)NCC#N)Cc4ccc(O)c(c4)-c4cc3ccc4OCCN)c(C)n2)cc1 [Compound 505]	–	0.25 (≈ 0.305 µM)	2 (≈ 2.44 µM)	–	–	0.016 (≈ 0.0195 µM)
CCCCCCc1ccc(-c2ncc(C(=O)N[C@@H](CCN)C(=O)N(C)[C@@H]3C(=O)N[C@@H](C)C(=O)N[C@H](C(=O)NCC#N)Cc4ccc(OCCN)c(c4)-c4cc3ccc4OCCN)n2C)cc1 [Compound 507]	–	0.031 (≈ 0.0342 µM)	0.75 (≈ 0.828 µM)	–	–	0.016 (≈ 0.0177 µM)
